“And” between values parts separate entries of the source, which are not always exact repeats. Equal values may be shown once.
What was measured:
[1] = Pharmacokinetic evaluation after intravenous injection or intragastric administration, plasma LC-MS/MS; type: in vivo, SD rats
Text: After the compounds were given to SD rats by intravenous injection or intragastric administration, concentrations of related compounds in plasma were detected by an LC-MS/MS method, and pharmacokinetics and absolute bioavailability of the compounds prepared in Embodiments 13 and 14 in the rats were preliminarily evaluated.
2. Line: Sprague Dawley rats, sex: male, weight: 200 g to 250 g
Pharmacokinetic characteristics of rodents after intravenous injection and oral administration of the compounds were tested by a standard scheme. In the experiment, a candidate compound was prepared into a clear solution, and given to the rats by single intravenous injection and intragastric administration. A solvent for intravenous injection was a certain proportion of N,N-dimethylacetamide (DMA) and 10% Solutol HS15 solution, and a solvent for oral administration was a certain proportion of sodium carboxymethyl cellulose (CMC) suspension. 5 minutes, 15 minutes, 30 minutes, 1 hour, 2 hours, 4 hours, 6 hours, 8 hours, 10 hours and 24 hours after drug administration, blood samples of the animals were respectively collected into K2EDTA anticoagulation tubes, which were temporarily stored on ice until centrifugation.

EPO (erythropoietin) [2] = test: Pharmacological evaluation: influence of continuous administration on EPO level; type: in vivo, SD rats; details: for EPO levels in serum of the rats: after 14 days of administration; for EPO levels in plasma of the rats: after administration, compared with the group of positive drug Enarodustat; for EPO level after 14 days of administration: individual rats 1-6; for EPO level after 14 days of administration / EPO level after 14 days of administration, Mean: 0.3 mg/mL, 10 mL/kg, once a day for 14 consecutive days, blood 4 hours after the drug on the 14th day, 2904.6 pg/mL was an upper limit of measurement; for EPO level after 14 days of administration, Mean: mean of 6 rats
Method: This experiment was intended to evaluate an influence of continuous administration of the compounds prepared in Embodiments 12, 13 and 14 on EPO (erythropoietin) in SD rats.
• Line: SD (Sprague Dawley) • Weeks of age and weight: 8 weeks, weight 200 g to 220 g • Sex: male • Animal source: Beijing Vital River Laboratory Animal Technology Co., Ltd.
• Positive drug: Enarodustat • Description: commercialized drugs approved for marketing in Japan • Specification and content: 2 mg JTZ-951(Enarodustat), 140 capsules/box
After a week of adaptive feeding, SD rats were randomly divided into 3 groups, 6 rats in each group, which were namely a blank group, a positive drug group (Enarodustat) and a group of compound in Embodiment 12. An Enarodustat tablet was crushed by a mortar, then quantitatively added with 0.5% methyl cellulose, and magnetically stirred and mixed evenly; and the compound prepared in Embodiment 12 was weighed, then quantitatively added with 0.5% methyl cellulose, and magnetically stirred and mixed evenly. […] The drug was given once a day for 14 consecutive days, and blood was taken to measure an EPO level 4 hours after the drug was given on the 14th day.

[3] = Subacute toxicity test, 14 consecutive days; type: in vivo; details: SD rats, 10 mg/kg once a day for 14 consecutive days, in words
Text: A proper amount of the compound in Embodiment 13 and a proper amount of the compound in Embodiment 14 were weighed by a balance and respectively placed into proper glass bottles, then DMSO, Solutol HS-15 and 0.9% physiological saline (in a ratio of v: v: v = 5%: 10%: 85%) were sequentially added into the glass bottles, and vortexed and stirred, and a drug dissolution condition was continuously concerned in the stirring process until the compounds were completely dissolved/suspended. Finally, drug solutions of the compound in Embodiment 13 and the compound in Embodiment 14 with a concentration of 0.67 mg/mL were prepared for current use.
An animal room was well ventilated, equipped with an air-conditioner, kept at a temperature of 20°C and 25°C and a humidity of 40% to 70%, and in light and dark conditions for 12 hours respectively, and the animals could eat and drink freely. SD rats with good physical signs could be selected for this experiment after being adaptively fed for at least 3 days before administration. Table 23 Source and number of experimental animals
Any operation on the experimental animals in this experiment met the requirements of the "Regulations for the Administration of Affairs Concerning Experimental Animals" issued by the Ministry of Science and Technology of the People's Republic of China. In this experiment, a solvent control group, an administration group of compound in Embodiment 13 and an administration group of compound in Embodiment 14 were set up. Administration dosages of the administration group of compound in Embodiment 13 and the administration group of compound in Embodiment 14 were (10 mg/kg) once a day for 14 consecutive days, while the same amount of blank solvent was given to the blank control group, and administration volumes were all 15 mL/kg. After each administration, symptoms and degrees of toxic reaction of the animals were observed. Recovery observation was carried out for 7 days after the last administration. […]
During the experiment, experimenters and veterinarians should observe physical signs and health conditions of the experimental animals continuously. Any abnormal manifestations of the animals, such as pain, depression and decreased activity should be recorded in original records of the experiment. […]
During the experiment, all animals were observed beside cages at least twice a day, and observed continuously for 2 hours after the drug administration. During the drug administration, if the animals had serious side effects or died, observation results should be recorded in a corresponding form. […]
The animals should be weighed before daily drug administration for 14 consecutive days, and the weights were recorded in a corresponding form. Food intakes of the experimental animals were detected during the experiment. […]

[4] = test system: human hepatocarcinoma cell line Hep3B; test: In-vitro erythropoietin (EPO)-inducing activity experiment (EPO ELISA, OD450); type: cell-based; details: Hep3B cells, incubated 24 hours at 37°C
Method: In-vitro erythropoietin (EPO)-inducing activities of the compounds in Embodiments 10 to 12 were evaluated by using a human hepatocarcinoma cell line Hep3B (ATCC). Hep3B cells were cultured in an EMEM medium (Eagle's Minimum Essential Medium) at 37°C in the presence of 10% fetal bovine serum (FBS). Experimental steps were as follows: • (1) Cell preparation: the cells were inoculated in a 96-well plate, and cell plating was carried out according to an amount of 100 µL per well based on 2*10~4 per well. • (2) Preparation of compound concentration gradient: 100 µM, 20 µM, 2-parallel well detection. A solution with 200 times final concentration was prepared in a 96-well plate, the compound was diluted 200/3 times by using a cell culture medium, and then 50 µL of the compound was sucked for drug administration to the cells. 50 µL of DMSO-containing culture solution was added into a negative control well to make a final concentration contain 5 ‰ DMSO, and 50 µL of positive compound with the highest concentration was added into a positive control well to incubate the cells at 37°C for 24 hours. • (3) The reaction plate was washed twice with 1X Wash Buffer according to about 400 µL per well. • (4) 100 µL of diluted standard (comprising a standard blank control) was added into an appropriate well. • (5) 50 µL of sample and 50 µL of Sample Diluent were added into a sample well. • (6) 50 µL of 1X Biotin Conjugated Antibody were added into all wells to incubate the cells at room temperature for 1 hour. • (7) The reaction plate was washed with 1X Wash Buffer for 6 times according to about 400 µL per well. • (8) 100 µL of 1X Streptavidin-HRP was added in to each well to incubate the cells at room temperature for 15 minutes. • (9) The reaction plate was washed with 1X Wash Buffer for 6 times according to about 400 µL per well. • (10) 100 µL of TMB Substrate Solution was added into each well to incubate the cells at room temperature for 10 minutes. • (11) 100 µL of Stop Solution was added into each well. • (12) OD450 was read by EnSight.
The EPO-inducing activities of the compounds were expressed as the concentration for 50% of maximal effect (EC50).

PHD2 enzyme = molecular target: T1, PHD2 enzyme (Homo sapiens, UniProt Q9GZT9); test: Detection of PHD2 enzyme activity inhibition (FITC-HIF1α tracer, mP read-out); type: biochemical; details: test concentration from 10 µM, diluted 3 times into 10 concentrations; read-out: IC50
T1 construct: purchased Active motif
T1 sequence (Q9GZT9 whole entry, species assumed): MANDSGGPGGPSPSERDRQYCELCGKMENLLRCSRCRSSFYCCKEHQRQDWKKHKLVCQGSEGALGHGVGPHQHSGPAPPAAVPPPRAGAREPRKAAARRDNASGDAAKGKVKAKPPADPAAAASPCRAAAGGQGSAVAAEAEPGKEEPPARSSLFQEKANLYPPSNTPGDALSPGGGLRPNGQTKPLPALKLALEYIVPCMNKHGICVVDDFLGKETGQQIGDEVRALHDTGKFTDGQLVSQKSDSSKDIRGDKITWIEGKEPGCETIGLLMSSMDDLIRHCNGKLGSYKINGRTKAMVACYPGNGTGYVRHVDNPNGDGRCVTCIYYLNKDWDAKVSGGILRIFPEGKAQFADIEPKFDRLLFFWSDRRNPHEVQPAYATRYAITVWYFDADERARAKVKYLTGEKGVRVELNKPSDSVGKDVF
Method: (1) A 1×Assay buffer was prepared. […] 100 nL of 100% DMSO was added into a negative control well and a positive control well respectively. (3) An enzyme solution with 2 times final concentration was prepared with the 1×Assay buffer. (4) 5 µL of the enzyme solution with 2 times final concentration was added into a compound well and the positive control well respectively. (5) 5 µL of the 1 ×Assay buffer was added into the negative control well. (6) The 384-well plate was centrifuged at 1000 rpm for 30 seconds, oscillated and mixed evenly, and then incubated for 15 minutes. (7) A tracer solution with 2 times final concentration was prepared with the 1×Assay buffer, and 5.0 µL of the tracer solution with 2 times final concentration was added to start the reaction.

EPO (erythropoietin) [5] = test: Pharmacological evaluation: influence of continuous administration on EPO level; type: in vivo, SD rats; details: SD rat, continuous chronic administration, in words
[6] = SD rats, in words, compared with Enarodustat in the table
[7] = male SD rats, route and dose not given

| SMILES | half-lives [1, 6] | in-vivo exposure [1, 6] | Bioavailability F ([1]; male SD rats, intragastric vs intravenous) | Concentration integral AUC [1, 7] | Half-life period T1/2 [1, 7] | EPO levels in serum of the rats (EPO (erythropoietin) [2]; in words) | EPO levels in plasma of the rats (EPO (erythropoietin) [2]; in words) | EPO level after 14 days of administration (EPO (erythropoietin) [2]) | EPO level after 14 days of administration, Mean (EPO (erythropoietin) [2]) | toxicities ([3]; compared with Enarodustat) | gastrointestinal findings [3] | EC50 [4] | IC50 (PHD2 enzyme) | hemoglobin level (EPO (erythropoietin) [5]) | EPO level (EPO (erythropoietin) [2]; SD rat, continuous chronic administration, in words) | EC50 ([4]; Homo sapiens, Hep3B, 24 h) |
| --- | --- | --- | --- | --- | --- | --- | --- | --- | --- | --- | --- | --- | --- | --- | --- | --- |
| O=C(O)CNC(=O)c1c(O)cc(C2CCc3ccccc3C2)n2ncnc12 (single isomer, unassigned) [Compound in Embodiment 14, [(7-hydroxy-5-(1,2,3,4-tetrahydronaphthalene-2-yl)-[1,2,4]triazolo[1,5-a]pyridine-8-carbonyl)amino]acetic acid] | obviously longer | higher | 31.3% | 15740 ng·h/mL | 2.43 h | increased significantly | significantly higher | 2279.1 pg/mL and 2095.6 pg/mL and 1982.7 pg/mL and 1943.6 pg/mL and 2038.9 pg/mL and 2137.6 pg/mL | 2079.6 pg/mL | lower than that of Enarodustat | no obvious gastrointestinal necrosis, and bleeding spots or flatulence in a black stomach part | 4.16 µM | – | – | – | – |
| O=C(O)CNC(=O)c1c(O)cc(C2CCc3ccccc3C2)n2ncnc12 (centres unmarked) [Compound in Embodiment 12, [(7-hydroxy-5-(1,2,3,4-tetrahydronaphthalene-2-yl)-[1,2,4]triazolo[1,5-a]pyridine-8-carbonyl)amino]acetic acid] | – | – | – | – | – | increased significantly | significantly higher | 2649.3 pg/mL and ≥ 2904.6 pg/mL (4×) and 2882.6 pg/mL | 2858.4 pg/mL | – | – | – | 0.0343 µM | significantly increase | significantly increase | 6.79 µM |
